# From the Kinase Knowledgebase extract (Sharma et al. 2016)
# Target: MAPK14 (human) (UniProt Q16539)
# Assay: Inhibition of MAPK14 Kinase Activity
# Chain of MAPK14 (human) (Q16539 whole entry, looked up): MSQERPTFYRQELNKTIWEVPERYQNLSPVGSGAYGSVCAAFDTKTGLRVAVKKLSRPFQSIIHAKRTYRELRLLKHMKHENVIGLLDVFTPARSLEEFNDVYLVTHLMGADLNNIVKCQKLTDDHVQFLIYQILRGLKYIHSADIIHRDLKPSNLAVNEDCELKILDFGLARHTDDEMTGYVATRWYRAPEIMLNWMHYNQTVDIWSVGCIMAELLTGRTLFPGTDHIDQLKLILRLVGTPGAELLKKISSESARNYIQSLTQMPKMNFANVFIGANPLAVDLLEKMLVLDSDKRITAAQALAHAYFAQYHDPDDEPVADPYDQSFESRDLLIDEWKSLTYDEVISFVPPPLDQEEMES
row,SMILES,IC50
1,Cc1nc(-c2ccc(F)cc2)c(-c2nc(C(=O)NCCc3ccc4c(c3)OCO4)cs2)s1,≤ 1000 nM
2,CC(C)NC(=O)c1csc(-c2oc(CNC(=O)c3ccc(C(F)(F)F)cc3[N+](=O)[O-])nc2-c2ccc(F)cc2)n1,≤ 1000 nM
3,Cc1nc(-c2ccc(F)cc2)c(-c2nc(C(=O)NCc3ccc4c(c3)OCO4)cs2)s1,≤ 1000 nM
4,C#CCNC(=O)c1csc(-c2c(-c3ccc(F)cc3)n[nH]c2C2CCNCC2)n1,≤ 1000 nM
5,Cc1nc(-c2ccc(F)cc2)c(-c2nc(C(=O)N[C@H](CO)Cc3ccccc3)cs2)s1,≤ 1000 nM
6,COc1ccncc1NC(=O)c1csc(-c2sc(C)nc2-c2ccc(F)cc2)n1,≤ 1000 nM
7,CC(C)NC(=O)c1csc(-c2c(-c3ccc(F)cc3)n[nH]c2C2CCNCC2)n1,≤ 1000 nM
8,CC(C)NC(=O)c1csc(-c2oc(CNCc3ccccn3)nc2-c2ccc(F)cc2)n1,≤ 1000 nM
9,CC(C)NC(=O)c1csc(-c2oc(CN3CCN(C(=O)C(F)(F)F)CC3)nc2-c2ccc(F)cc2)n1,≤ 1000 nM
10,COc1ccc(C(=O)N2CCN(Cc3nc(-c4ccc(F)cc4)c(-c4nc(C(=O)NC(C)C)cs4)o3)CC2)c(OC)c1,≤ 1000 nM
11,CC(=O)Nc1cccc(C(=O)N2CCC(c3[nH]nc(-c4ccc(F)cc4)c3-c3nc(C(=O)NC(C)C)cs3)CC2)c1,≤ 1000 nM
12,Cc1nc(-c2ccc(F)cc2)c(-c2nc(C(=O)Nc3cnc4ccccc4c3)cs2)s1,≤ 1000 nM
13,CC(C)NC(=O)c1csc(-c2oc(CN3CCN(C(=O)c4ccc(Cl)cc4O)CC3)nc2-c2ccc(F)cc2)n1,≤ 1000 nM
14,COc1ccc(O)c(C(=O)N2CCN(Cc3nc(-c4ccc(F)cc4)c(-c4nc(C(=O)NC(C)C)cs4)o3)CC2)c1,≤ 1000 nM
15,CC(C)NC(=O)c1csc(-c2oc(CNC(=O)c3cc(Br)ccc3Cl)nc2-c2ccc(F)cc2)n1,≤ 1000 nM
16,CCCCOc1ccc(C(=O)N2CCN(Cc3nc(-c4ccc(F)cc4)c(-c4nc(C(=O)NC(C)C)cs4)o3)CC2)cc1,≤ 1000 nM
17,CCC(C)NC(=O)c1csc(-c2c(-c3ccc(F)cc3)n[nH]c2C2CCNCC2)n1 (configuration not stated),≤ 1000 nM
18,Cc1nc(-c2ccc(F)cc2)c(-c2nc(C(=O)NC3CCCC3)cs2)s1,≤ 1000 nM

# The next lines start with the values.
row,IC50,SMILES
1,≤ 1000 nM,CC(C)NC(=O)c1csc(-c2oc(CNC(=O)c3cc([N+](=O)[O-])ccc3O)nc2-c2ccc(F)cc2)n1
2,≤ 1000 nM,COc1ccc(C=CC(=O)NCc2nc(-c3ccc(F)cc3)c(-c3nc(C(=O)NC(C)C)cs3)o2)cc1O
3,≤ 1000 nM,Cc1ccc(C(=O)N2CCN(Cc3nc(-c4ccc(F)cc4)c(-c4nc(C(=O)NC(C)C)cs4)o3)CC2)c(C)c1
4,≤ 1000 nM,CC(C)NC(=O)c1csc(-c2oc(CNC(C)C(C)C)nc2C2=CC=C(F)OC2)n1 (configuration not stated)
5,≤ 1000 nM,Cc1onc(-c2ccc(Cl)cc2)c1-c1ccn(C(=O)NC2CCCCC2)n1
6,≤ 1000 nM,CC(C)NC(=O)c1csc(-c2oc(CN3CCN(C(=O)C=O)CC3)nc2-c2ccc(F)cc2)n1
7,≤ 1000 nM,COc1ccccc1CCNC(=O)c1csc(-c2sc(C)nc2-c2ccc(F)cc2)n1
8,≤ 1000 nM,CC(C)NC(=O)c1csc(-c2c(-c3ccc(F)cc3)n[nH]c2C2CCN(C(=O)c3cncc(Br)c3)CC2)n1
9,≤ 1000 nM,CC(C)NC(=O)c1csc(-c2c(-c3ccc(F)cc3)noc2CN2CCNCC2)n1
10,≤ 1000 nM,CC(C)NC(=O)c1csc(-c2oc(CN3CCN(C(=O)C4CCc5ccccc5C4)CC3)nc2-c2ccc(F)cc2)n1 (configuration not stated)
11,≤ 1000 nM,CC(C)NC(=O)c1csc(-c2oc(CN3CCN(C(=O)c4ccc(N(C)C=O)cc4)CC3)nc2-c2ccc(F)cc2)n1
12,≤ 1000 nM,COc1ccc(CNC(=O)c2csc(-c3sc(C)nc3-c3ccc(F)cc3)n2)cc1OC
13,≤ 1000 nM,CC(C)NC(=O)c1csc(-c2oc(CNC(=O)c3cc(O)ccc3[N+](=O)[O-])nc2-c2ccc(F)cc2)n1
14,≤ 1000 nM,CC(C)NC(=O)c1csc(-c2oc(CN3CCOCC3)nc2-c2ccc(F)cc2)n1
15,≤ 1000 nM,Cc1nc(-c2ccc(F)cc2)c(-c2nc(C(=O)NCc3ccc(C(F)(F)F)cc3)cs2)s1
16,≤ 1000 nM,CC(C)NC(=O)c1csc(-c2c(-c3ccc(F)cc3)n[nH]c2C2CCN(C(=O)c3ncc[nH]3)CC2)n1
17,≤ 1000 nM,Cc1nc(-c2ccc(F)cc2)c(-c2nc(C(=O)NC(C)CO)cs2)s1 (configuration not stated)
18,≤ 1000 nM,COc1cc(C(=O)N2CCN(Cc3nc(-c4ccc(F)cc4)c(-c4nc(C(=O)NC(C)C)cs4)o3)CC2)cc(OC)c1O
19,≤ 1000 nM,CC(C)NC(=O)c1csc(-c2oc(CNC(=O)c3ccc(F)c([N+](=O)[O-])c3)nc2-c2ccc(F)cc2)n1
